# Patent US20060241178A1, “Compositions and methods for treating lung cancer” (priority 2002, published 2006)
# Marks after values point to notes of the source that are not given here.
# Assays:
# [1] = system: B(a)P-induced lung adenoma; assay: Tumor bioassay: B(a)P-induced lung tumorigenesis, ITC-NAC conjugates in diet during post-initiation phase
# Description: The ITC conjugates were incorporated (15 μmol/g diet) into AIN-76A diets (5% corn oil) by mixing with dextrose prior to diet preparation. The conjugates, 9.36 g BITC-NAC (15 mmol) or 9.79 g PEITC-NAC (15 mmol), were dissolved in 50 ml ethyl acetate, and then mixed with 200 g dextrose to ensure even coating of dextrose particles. After mixing with dextrose, the solvent was removed using a rotary evaporator and further dried using a vacuum pump (2-3 h). Diets were prepared in 1-2 kg batches, and were stored at 4° C. in a container purged with nitrogen. […] Stability was determined by extraction of 0.5 g portions of the diet with 2.5 ml methanol (2×). The methanol extracts were combined and a 1 ml aliquot was filtered using a 0.47 μm syringe filter. A 10 μl sample was then analyzed on HPLC (Jiao, et al., Chem. Res. Toxicol., 9: 932-938, 1996).
# Tumor Bioassay: Female strain A mice (Jackson Laboratories, Bar Harbor, Me.) of four weeks of age were housed under quarantine in polycarbonate cages (5 mice/cage) and provided modified AIN 76A diet (5% corn oil) and acidified drinking water ad libitum. The mice were maintained on a 12 h light: 12 h dark regimen at 22±5° C. and 50±20% relative humidity. After one week, the mice were weighed, and distributed into four groups containing 30 to 35 mice on the basis of body weight. At seven weeks of age, the mice in groups 1-3 were gavaged with a single dose of 20 μmol B(a)P in 0.2 ml cottonseed oil; group 4 received the vehicle only. Two days after dosing with the carcinogen, diets containing BITC-NAC (15 μmol/g, Group 2) and PEITC-NAC (15 μmol/g, Group 3) were provided. Groups 1 (B[a]P control) and 4 (vehicle only) remained on the modified AIN-76A diet with 5% corn oil. Tap water was provided ad libitum during the course of the bioassay. Mice were observed daily; diets were replenished on the fourth day of the week, and completely replaced on the seventh day. Mice were weighed weekly for four weeks, then monthly and at termination. At 84 days after B(a)P dosing, four mice per group were killed (CO2, cervical dislocation) to harvest lung tissues for molecular and immunohistochemical studies and to quantify lung adenomas, if present. At 140 days after B(a)P, the remaining mice in each group were killed. The number of lung tumors was recorded; lobes of lungs were placed in 10% phosphate buffered formalin for histological and immunohistochemical analysis. The remaining lung lobes were snap frozen in liquid nitrogen.
# Mean tumor multiplicity and body weights at each time point were compared between groups using Student's T test.
# JNK 1 and 2 = assay: Western blot of lung total proteins: JNK phosphorylation; format: in vivo, A/J mice; settings: lung tissue 21 days after B(a)P
# A549/c-jun cells = assay: Apoptosis in A549/c-jun transfectants (morphology, DNA fragmentation, annexin V, PARP Western blot); format: cell-based, human; settings: 25 μM
# [2] = system: alveolar epithelium cells of lung; assay: In situ end-labeling (ISEL/TUNEL) of apoptosis in lung sections; format: in vivo, A/J mice
# A549/TAM67 cells = assay: Apoptosis in A549/TAM67 transfectants (morphology, DNA fragmentation, annexin V, PARP Western blot); format: cell-based, human; settings: 25 μM
# A549 cells = assay: Cell cycle phase-specific DNA strand breaks (TUNEL) in A549 cells; format: cell-based, human
# Description: Detection of cell cycle phase-specific DNA strand breaks (“TUNEL”): A549 cells were fixed with 1% formaldehyde for 15 min and then permabilized by post-fixation in 70% ethanol. The presence of in situ DNA strand breaks, a characteristic feature of apoptosis was detected by labeling them with a fluorochrome-conjugated nucleotide in the reaction catalyzed by the terminal deoxynucleotidyl transferase; cellular DNA was counterstained with DAPI. The kit provided by Phoenix Flow Systems (San Diego, Calif.) was used in this assay. This method is also described in detail elsewhere (Gorczyca et al., Internat J. Oncol. 1992, 1:639-648). Green and red fluorescence of cells probed for DNA strand breaks and DNA content was measured using a FACScan flow cytometer (Becton Dickinson, San Jose, Calif.) with standard settings of green (strand breaks) and red (DNA) fluorescence detection. To calculate the percentage of apoptotic cells in respective phases of cell cycle, DNA content frequency histograms were deconvoluted using CELLQuest software.
# Apoptosis induced by PEITC-NAC occurs predominantly in dividing cells. […] DNA strand breaks during apoptosis was detected by end-labeling, which was combined with analysis of the cellular DNA content. […]
# p53 = assay: Western blot of lung proteins: p53 expression and phosphorylation; format: in vivo, A/J mice; settings: lungs at termination of the bioassay
# [3] = system: c-Jun (AP-1 pathway) and Akt pathway genes; assay: Mouse Cancer Pathway Finder Gene Array on lung RNA; format: in vivo, A/J mice; settings: PEITC-NAC high dose diet vs control diet
# Source text: Some mice also had developed forestomach masses. […] Findings involving other pathways will be presented.
smiles,measurement,setting,value
"CC(=O)N[C@@H](CSC(=S)NCCc1ccccc1)C(=O)O [PEITC-NAC, N-acetylcysteine Conjugate of phenethyl isothiocyanate]",tumor multiplicity,"[1]; 15 μmol/g diet after B(a)P, at termination, B(a)P control 6.1±3.1",3.4±2.7 tumors/mouse
same,"Tumor Incidence (%), lung adenoma","[1]; 15 μmol/g diet from 2 days after 20 μmol B(a)P, 140 days",89%
same,"Tumor multiplicity (no. of tumors/mice), lung adenoma","[1]; 15 μmol/g diet from 2 days after 20 μmol B(a)P, 140 days, mean ± SD",3.39 ± 2.71^b no. of tumors/mice
same,average body weight at termination,"[1]; 15 μmol/g diet, controls 25.8 g and 25.7 g",22.8 g
same,tumor reduction,"[1]; versus B(a)P control diet group, at termination",44%
same,JNK 1 (p46) phosphorylation level,JNK 1 and 2,increase
same,JNK 2 (p54) phosphorylation,JNK 1 and 2,only slightly induced
same,PARP 89 kD cleavage fragment,A549/c-jun cells; 3 h,the most evident cleavage
same,PARP protein,A549/c-jun cells; 24 h,maintained a significant levels of intact PARP protein
same,apoptosis compared with control-vector transfected cells,A549/c-jun cells; 24 h,enhanced apoptosis
same,"increase in apoptosis, non-tumorous lung tissue",[2]; after 140 days,2.3 fold
same,"apoptotic index, fold elevation","[2]; lung tissue at 84 days, before tumors appeared",approximately 2 fold
same,PARP 89 kD cleavage fragment,A549/TAM67 cells; 3 h,a defined 89 kD band
same,cell survival (annexin V-Cy3 / 6-CFDA staining),A549/TAM67 cells; 20 h,nearly no cell survival
same,PARP protein,A549/TAM67 cells; 24 h,completely degraded
same,"cell survival (morphology, DNA fragmentation)",A549/TAM67 cells; 24 h,most TAM67 transfectants had already died
same,cell cycle distribution,"A549 cells; 25 μM, 16 h",a substantial portion of the cells accumulate in G2M phase
same,apoptotic cells by DNA strand break labeling,"A549 cells; 50 μM, 24 h",a distinct population of apoptotic cells
same,phosphorylation of p53 at Ser15,p53,stronger increase
same,c-Jun expression (AP-1 pathway) and Akt pathway genes,[3],up-regulated
